{
  "source": "paper PMC9504208",
  "about": "“Comprehensive Study of Antiretroviral Drug Permeability at the Cervicovaginal Mucosa via an In Vitro Model” (Pharmaceutics, 2022)",
  "key": {"[1]": {"experiment": "Bi-directional permeability (Papp) across HEC-1A dual chamber (Transwell) barrier model", "assay_type": "in vitro ADME", "conditions": "human; for Papp A→B at 2 h: read-out: Absorptive permeability Papp", "experimental": "The apical chambers of 12-well polycarbonate and polyester systems (Corning Costar Corp, Cambridge, UK) were seeded with different densities of HEC-1A cells in 500 µL of the medium while 1500 µL culture medium was added to the basolateral chamber. -Medium in both chambers was changed every 48–72 h."}, "[2]": {"system": "HEC-1A barrier model", "experiment": "Permeability of labelled drug across HEC-1A model on coadministration with a second ARV", "assay_type": "in vitro ADME, human", "conditions": "labelled drug 10 µM"}, "[3]": {"conditions": "ref DrugBank; cited from earlier work"}, "[4]": {"system": "HEC-1A cells", "experiment": "Cell-associated drug and distribution between apical and basolateral compartments after absorptive permeability assay;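 further: transwell transport run over 2 h at 37 °C, radiolabelled drug quantified by liquid scintillation counting, with insert membranes also counted for mass balance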", "assay_type": "in vitro ADME, human"}, "[5]": {"experiment": "Cell-associated drug and distribution between apical and basolateral compartments after absorptive permeability assay", "assay_type": "in vitro ADME, human", "conditions": "human, pH 7.4; 0.2% Poloxamer in receiver; read-out: Recovery from the apical compartment"}, "[6]": {"system": "HEC-1A cell layers", "experiment": "Permeability across HEC-1A cell layers stimulated with poly(I:C)", "conditions": "p > 0.05, ANOVA"}, "[7]": {"system": "HEC-1A cell layers"}, "[8]": {"experiment": "in vitro", "conditions": "human, pH 7.4"}, "[9]": {"system": "HEC-1A monolayer", "experiment": "Darunavir transfer across low-pH-adapted HEC-1A monolayers at apical pH 7.5 or 5.5 (LC-MS/MS)", "assay_type": "in vitro ADME, human", "conditions": "2 h, n = 10"}},
  "note": "Like-named read-outs stand apart in the source and are kept apart here.",
  "data": [
    {"smiles": "Cc1cc(C)c(Nc2ccnc(Nc3ccc(C#N)cc3)n2)c(C)c1", "note": "[dapivirine, Dapivirine]", "values": [
      {"measurement": "Papp A→B at 2 h", "setting": "[1]; pH 7.4, dapivirine 0.1–10 µM in 1% DMSO, 0.2% (w/v) Poloxamer in basolateral receiver", "value": "9.52 to 11.5", "unit": "×10⁻⁶ cm/s"},
      {"measurement": "Papp A→B at 2 h", "setting": "[1]; pH 7.4, dapivirine 0.1–10 µM in 1% DMSO, no Poloxamer in receiver", "value": "2.5 to 2.61", "unit": "×10⁻⁶ cm/s"},
      {"measurement": "Absorptive permeability on coadministration with tenofovir or darunavir", "setting": "[2]", "value": "not affected"},
      {"measurement": "logP", "setting": "[3]", "value": 5.6},
      {"measurement": "% Drug Distribution Apical", "setting": "[4]; 0.1 μM", "value": "15.04 ± 0.55", "unit": "%"},
      {"measurement": "% Drug Distribution Basolateral", "setting": "[4]; 0.1 μM", "value": "2.87 ± 0.26", "unit": "%"},
      {"measurement": "% Drug Distribution Cell-Associated", "setting": "[4]; 0.1 μM", "value": "82.10 ± 0.30", "unit": "%"},
      {"measurement": "% Drug Distribution Apical", "setting": "[4]; 0.1 μM + Poloxamer", "value": "16.06 ± 3.26", "unit": "%"},
      {"measurement": "% Drug Distribution Basolateral", "setting": "[4]; 0.1 μM + Poloxamer", "value": "10.56 ± 1.26", "unit": "%"},
      {"measurement": "% Drug Distribution Cell-Associated", "setting": "[4]; 0.1 μM + Poloxamer", "value": "73.37 ± 3.37", "unit": "%"},
      {"measurement": "% Drug Distribution Apical", "setting": "[4]; 1 μM", "value": "14.72 ± 0.10", "unit": "%"},
      {"measurement": "% Drug Distribution Basolateral", "setting": "[4]; 1 μM", "value": "2.13 ± 0.33", "unit": "%"},
      {"measurement": "% Drug Distribution Cell-Associated", "setting": "[4]; 1 μM", "value": "83.15 ± 0.35", "unit": "%"},
      {"measurement": "% Drug Distribution Apical", "setting": "[4]; 1 μM + Poloxamer", "value": "16.47 ± 2.86", "unit": "%"},
      {"measurement": "% Drug Distribution Basolateral", "setting": "[4]; 1 μM + Poloxamer", "value": "11.01 ± 1.41", "unit": "%"},
      {"measurement": "% Drug Distribution Cell-Associated", "setting": "[4]; 1 μM + Poloxamer", "value": "72.51 ± 2.86", "unit": "%"},
      {"measurement": "% Drug Distribution Apical", "setting": "[4]; 5 μM", "value": "14.98 ± 0.76", "unit": "%"},
      {"measurement": "% Drug Distribution Basolateral", "setting": "[4]; 5 μM", "value": "1.86 ± 0.41", "unit": "%"},
      {"measurement": "% Drug Distribution Cell-Associated", "setting": "[4]; 5 μM", "value": "83.16 ± 1.15", "unit": "%"},
      {"measurement": "% Drug Distribution Apical", "setting": "[4]; 5 μM + Poloxamer", "value": "17.47± 2.76", "unit": "%"},
      {"measurement": "% Drug Distribution Basolateral", "setting": "[4]; 5 μM + Poloxamer", "value": "10.78 ± 1.18", "unit": "%"},
      {"measurement": "% Drug Distribution Cell-Associated", "setting": "[4]; 5 μM + Poloxamer", "value": "71.75 ± 2.33", "unit": "%"},
      {"measurement": "% Drug Distribution Apical", "setting": "[4]; 10 μM", "value": "14.52 ± 0.45", "unit": "%"},
      {"measurement": "% Drug Distribution Basolateral", "setting": "[4]; 10 μM", "value": "2.09 ± 0.18", "unit": "%"},
      {"measurement": "% Drug Distribution Cell-Associated", "setting": "[4]; 10 μM", "value": "83.39 ± 0.55", "unit": "%"},
      {"measurement": "% Drug Distribution Apical", "setting": "[4]; 10 μM + Poloxamer", "value": "17.59 ± 3.41", "unit": "%"},
      {"measurement": "% Drug Distribution Basolateral", "setting": "[4]; 10 μM + Poloxamer", "value": "11.72 ± 1.34", "unit": "%"},
      {"measurement": "% Drug Distribution Cell-Associated", "setting": "[4]; 10 μM + Poloxamer", "value": "70.69 ± 2.76", "unit": "%"},
      {"measurement": "Recovery from the apical compartment after absorptive permeability assays", "setting": "[4]; % of initial concentration, no Poloxamer", "value": "15–16%"},
      {"measurement": "recovery at 2 h", "setting": "[5]", "value": "19 to 21", "unit": "%"}
    ]},
    {"smiles": "CC(C)CN(C[C@@H](O)[C@H](Cc1ccccc1)NC(=O)O[C@H]1CO[C@H]2OCC[C@H]21)S(=O)(=O)c1ccc(N)cc1", "note": "[darunavir, Darunavir]", "values": [
      {"measurement": "Difference in Papp (A-B or B-A), poly(I:C)-stimulated vs unstimulated cell layers", "setting": "[6]", "value": "no significant differences"},
      {"measurement": "Papp", "setting": "[7]", "value": "8.45 ± 0.68", "unit": "×10⁻⁶ cm/s"},
      {"measurement": "Papp at 2 h, 10 µM", "setting": "[8]", "value": "8.24 ± 0.6", "unit": "×10⁻⁶ cm/s"},
      {"measurement": "Papp A→B at 2 h", "setting": "[1]; pH 7.4", "value": "9.66 to 11.2", "unit": "×10⁻⁶ cm/s"},
      {"measurement": "Papp B→A at 2 h", "setting": "[1]; pH 7.4, read-out: Secretory permeability Papp", "value": "8.59 to 9.42", "unit": "×10⁻⁶ cm/s"},
      {"measurement": "Absorptive permeability on coadministration with dapivirine", "setting": "[2]; dapivirine 0–10 µM", "value": "not altered"},
      {"measurement": "Permeabilities on coadministration with tenofovir", "setting": "[2]; tenofovir 0–100 µM", "value": "no effect"},
      {"measurement": "logP", "setting": "[3]", "value": 2.82},
      {"measurement": "% of darunavir transferred to the receiver compartment, absorptive direction", "setting": "[9]; apical pH 5.5, basal pH 7.5, p < 0.001", "value": "30.1 ± 6.0", "unit": "%"},
      {"measurement": "% of darunavir transferred to the receiver compartment, absorptive direction", "setting": "[9]; apical pH 7.5", "value": "20 ±2.8", "unit": "%"},
      {"measurement": "% Drug Distribution Apical", "setting": "[4]; 1 μM", "value": "82.90 ± 1.76", "unit": "%"},
      {"measurement": "% Drug Distribution Basolateral", "setting": "[4]; 1 μM", "value": "15.13 ± 1.44", "unit": "%"},
      {"measurement": "% Drug Distribution Apical", "setting": "[4]; 5 μM", "value": "83.15 ± 2.61", "unit": "%"},
      {"measurement": "% Drug Distribution Basolateral", "setting": "[4]; 5 μM", "value": "14.55 ± 1.88", "unit": "%"},
      {"measurement": "% Drug Distribution Cell-Associated", "setting": "[4]; 5 μM", "value": "2.55 ± 1.22", "unit": "%"},
      {"measurement": "% Drug Distribution Apical", "setting": "[4]; 10 μM", "value": "83.36 ± 2.12", "unit": "%"},
      {"measurement": "% Drug Distribution Basolateral", "setting": "[4]; 10 μM", "value": "13.95 ± 1.75", "unit": "%"},
      {"measurement": "% Drug Distribution Cell-Associated", "setting": "[4]; 10 μM", "value": "2.70 ± 1.31", "unit": "%"},
      {"measurement": "% Drug Distribution Apical", "setting": "[4]; 20 μM", "value": "81.72 ± 1.61", "unit": "%"},
      {"measurement": "% Drug Distribution Basolateral", "setting": "[4]; 20 μM", "value": "15.31 ± 1.22", "unit": "%"},
      {"measurement": "% Drug Distribution Cell-Associated", "setting": "[4]; 20 μM", "value": "2.97 ± 1.27", "unit": "%"},
      {"measurement": "Cell-associated drug (HEC-1A cells)", "setting": "[4]; after absorptive permeability assays", "value": "≤ 3", "unit": "%"}
    ]}
  ]
}
